According to US9346754B2, “Method of treating advanced non-alcoholic steatohepatitis” (priority 2014, dated 2016):
Entries after “also recorded” stand apart in the source; their conditions may differ.

Tests used:
Assay type in all cases: in vivo, C57BL/6 mice
[1] = test system: STAM Model of Advanced Non-Alcoholic Steatohepatitis; assay: Sirius red staining, percentage of fibrosis area in STAM mice; conditions: for Sirius red-positive area (fibrosis area): mean ± SD
Experimental: For HE staining, sections were cut from paraffin blocks of liver tissue prefixed in Bouin's solution and stained with Lillie-Mayer's Hematoxylin (Muto Pure Chemicals, Japan) and eosin solution (Wako Pure Chemical Industries). NAFLD Activity score (NAS) was calculated according to the criteria of Kleiner (Kleiner D E. et al., Hepatology, 2005; 41:1313). To visualize collagen deposition, Bouin's fixed liver sections were stained using picro-Sirius red solution (Waldeck, Germany). For quantitative analysis of fibrosis area, inflammation area, and semi-quantification of α-SMA, bright field images of Sirius red-stained, F4/80- and α-SMA-immunostained sections were captured around the central vein using a digital camera (DFC280: Leica Microsystems, Germany) at 200-fold magnification, and the positive areas in 5 fields/section were measured using ImageJ software (National Institute of Health, USA). […] P values<0.05 were considered statistically significant. […] Results were expressed as mean±SD.

Five-Lipoxygenase mRNA = assay: Liver gene expression by quantitative RT-PCR: Five-Lipoxygenase
Experimental: (§1) Total RNA was extracted from liver samples using RNAiso (Takara Bio, Japan) according to the manufacturer's instructions. One μg of RNA was reverse-transcribed using a reaction mixture containing 4.4 mM MgCl2 (F. Hoffmann-La Roche, Switzerland), 40 U RNase inhibitor (Toyobo, Japan), 0.5 mM dNTP (Promega, USA), 6.28 μM random hexamer (Promega), 5× first strand buffer (Promega), 10 mM dithiothreitol (Invitrogen, USA) and 200 U MMLV-RT (Invitrogen) in a final volume of 20 μL. The reaction was carried out for 1 hour at 37° C., followed by 5 minutes at 99° C. Real-time PCR was performed using real-time PCR DICE and SYBR premix Taq (Takara Bio). To calculate the relative mRNA expression level, the expression of each gene was normalized to that of reference gene 36B4 (gene symbol: Rp1p0). Information of PCR-primer sets are described in Table 1. [table] […] P values<0.05 were considered statistically significant. […] Results were expressed as mean±SD.

TIMP-1 mRNA = assay: Liver gene expression by quantitative RT-PCR: TIMP-1; conditions: 10 mg/kg oral once daily, 8 to 12 weeks of age (MN-001-low; Telmisartan)
Experimental: as §1

[2] = Liver weight and liver-to-body weight ratio in STAM mice
Text: Mice in all groups will be sacrificed for the following assays at 12 weeks of age. Individual liver weight will be measured, and liver-to-body weight ratio will be calculated. Liver hydroxyproline will be quantified by a hydrolysis method. Histopathological analyses of liver sections (according to routine methods) HE staining (to estimate NAFLD Activity score), Sirius-red staining (to estimate the percentage of fibrosis area). F4/80 immunostaining (to estimate the percentage of inflammation area), Alpha-SMA immunostaining (to estimate the percentage of a-SMA positive area) are performed. Gene expression assays using total RNA from the liver Real-time RT-PCR analysis will be performed for TIMP-1, Collagen Type 1, α-SMA, 5-lipoxygenase, FLAP and LTC4 synthase are also performed. Statistical tests will be performed using Bonferroni Multiple Comparison Test. P values<0.05 will be considered statistically significant. […] P values<0.05 were considered statistically significant. […] Results were expressed as mean±SD.

Collagen Type 1 mRNA = assay: Liver gene expression by quantitative RT-PCR: Collagen Type 1
Experimental: as §1

Alpha-SMA mRNA = assay: Liver gene expression by quantitative RT-PCR: Alpha-SMA
Experimental: as §1

[3] = test system: STAM Model of Advanced Non-Alcoholic Steatohepatitis; assay: Alpha-SMA immunostaining, α-SMA-positive area in STAM mice; conditions: for Alpha-SMA-positive area: mean ± SD
Experimental: (§2) For immunohistochemistry, sections were cut from frozen liver tissues embedded in Tissue-Tek O.C.T. compound and fixed in acetone. Endogenous peroxidase activity was blocked using 0.03% H2O2 for 5 minutes, followed by incubation with Block Ace (Dainippon Sumitomo Pharma, Japan) for 10 minutes. The sections were incubated with a 200-fold dilution of anti-α-SMA (Epitomics, USA) or anti-F4/80 antibody (BMA Biomedicals, Switzerland) 1 hour at room temperature. […] For quantitative analysis of fibrosis area, inflammation area, and semi-quantification of α-SMA, bright field images of Sirius red-stained, F4/80- and α-SMA-immunostained sections were captured around the central vein using a digital camera (DFC280: Leica Microsystems, Germany) at 200-fold magnification, and the positive areas in 5 fields/section were measured using ImageJ software (National Institute of Health, USA). […] P values<0.05 were considered statistically significant. […] Results were expressed as mean±SD.

[4] = test system: STAM Model of Advanced Non-Alcoholic Steatohepatitis; assay: F4/80 immunostaining, percentage of inflammation area in STAM mice; conditions: for F4/80-positive area (inflammation area): mean ± SD
Experimental: as §2

[5] = 10 mg/kg oral once daily, 8 to 12 weeks of age (MN-001-low; Telmisartan)
[6] = 10 mg/kg oral once daily, 8 to 12 weeks of age (MN-001-low n=10; Telmisartan n=9)
[7] = Telmisartan 10 mg/kg oral once daily, 8 to 12 weeks of age
[8] = 30 mg/kg oral once daily, 8 to 12 weeks of age (MN-001-middle)
[9] = 100 mg/kg oral once daily, 8 to 12 weeks of age (MN-001-high)
[10] = 30 mg/kg oral once daily, 8 to 12 weeks of age (MN-001-middle, n=10)
[11] = 100 mg/kg oral once daily, 8 to 12 weeks of age (MN-001-high, n=10)
[12] = any doses of MN-001 (10, 30, 100 mg/kg oral once daily)
[13] = any doses of MN-001 (10, 30, 100 mg/kg oral once daily, 8 to 12 weeks of age)

Structure (SMILES): CCCc1nc2c(C)cc(-c3nc4ccccc4n3C)cc2n1Cc1ccc(-c2ccccc2C(=O)O)cc1 [Telmisartan, reference compound]
- Fibrosis area compared with the Vehicle group [1, 5]: significantly decreased
- Sirius red-positive area (fibrosis area) [1, 6]: 0.49 ± 0.19%
- Five-Lipoxygenase mRNA expression levels compared with the Vehicle group (Five-Lipoxygenase mRNA; [5]): tended to decrease
- TIMP-1 mRNA expression levels compared with the Vehicle group (TIMP-1 mRNA): significantly down-regulated
- Mean liver weight compared with the Vehicle group [2, 7]: significantly decreased; also recorded: significant decrease
- Mean liver-to-body weight ratio compared with the Vehicle group [2, 7]: significant decrease
- Collagen Type 1 mRNA expression levels compared with the Vehicle group (Collagen Type 1 mRNA; [7]): significantly down-regulated
- Alpha-SMA mRNA expression levels compared with the Vehicle group (Alpha-SMA mRNA; [7]): significantly down-regulated
- α-SMA-positive area compared with the Vehicle group [3, 5]: significantly decreased
- Alpha-SMA-positive area [3, 6]: 0.35 ± 0.14%
- Inflammation area compared with the Vehicle group [4, 7]: significantly decreased; also recorded: tended to decrease
- F4/80-positive area (inflammation area) [4, 6]: 3.79 ± 1.60%

Structure (SMILES): CCCc1c(SCCCOc2ccc(C(C)=O)c(OCCCC(=O)O)c2CCC)ccc(C(C)=O)c1O [MN-001]
- Fibrosis area compared with the Vehicle group [1, 5]: significantly decreased
- Fibrosis area compared with the Vehicle group [1, 8]: tended to decrease
- Fibrosis area compared with the Vehicle group [1, 9]: significantly decreased
- Sirius red-positive area (fibrosis area) [1, 6]: 0.75 ± 0.40%
- Sirius red-positive area (fibrosis area) [1, 10]: 0.95 ± 0.37%
- Sirius red-positive area (fibrosis area) [1, 11]: 0.65 ± 0.28%
- Five-Lipoxygenase mRNA expression levels compared with the Vehicle group (Five-Lipoxygenase mRNA; [5]): no significant differences
- Five-Lipoxygenase mRNA expression levels compared with the Vehicle group (Five-Lipoxygenase mRNA; [8]): no significant differences
- Five-Lipoxygenase mRNA expression levels compared with the Vehicle group (Five-Lipoxygenase mRNA; [9]): tended to decrease
- TIMP-1 mRNA expression levels compared with the Vehicle group (TIMP-1 mRNA): significantly down-regulated
- Mean liver weight compared with the Vehicle group [2, 12]: no significant differences
- Mean liver-to-body weight ratio compared with the Vehicle group [2, 12]: no significant differences
- Collagen Type 1 mRNA expression levels compared with the Vehicle group (Collagen Type 1 mRNA; [9]): tended to decrease
- α-SMA mRNA expression levels compared with the Vehicle group (Alpha-SMA mRNA; [13]): no significant differences
- α-SMA-positive area compared with the Vehicle group [3, 5]: significantly decreased
- α-SMA-positive area compared with the Vehicle group [3, 8]: no significant difference
- α-SMA-positive area compared with the Vehicle group [3, 9]: significantly decreased
- Alpha-SMA-positive area [3, 6]: 0.45 ± 0.11%
- Alpha-SMA-positive area [3, 10]: 0.76 ± 0.19%
- Alpha-SMA-positive area [3, 11]: 0.48 ± 0.21%
- Inflammation area compared with the Vehicle group [4, 13]: no significant differences
- F4/80-positive area (inflammation area) [4, 6]: 6.47 ± 2.67%
- F4/80-positive area (inflammation area) [4, 10]: 6.36 ± 1.59%
- F4/80-positive area (inflammation area) [4, 11]: 5.14 ± 0.89%
